According to CN103739564A, “缬沙坦的多晶型及其制备方法” (Shanghai Institute of Materia Medica of CAS, priority 2012, dated 2013):

Experiment: Hygroscopicity analysis (DVS) of the valsartan crystal forms
Type: physicochemical
Settings: new crystal forms; result in words only; DVS comparison (Figure 11) not in text

CCCCC(=O)N(Cc1ccc(-c2ccccc2-c2nnn[nH]2)cc1)[C@H](C(=O)O)C(C)C [晶型E, (S)-N-(1-戊酰基)-N-[[2’-(1H-四唑-5-基)[1,1’-联苯]-4-基]甲基]-L-缬氨酸]
hygroscopicity: 吸湿性小
